Laboratory results published in patent US20260070921A1, “COMPOUND, ENDOPLASMIC RETICULUM STRESS INHIBITOR, PHARMACEUTICAL PRODUCT, OPHTHALMIC AGENT, EYE DROPS, COMPOSITION, AND METHOD FOR PRODUCING COMPOUND” (KYOTO UNIVERSITY, priority 2022, published 2026).

Assays:
[1] = Confocal microscopy of Nile red-stained assemblies; assay type: physicochemical; conditions: cell culture medium, prolonged incubation (>5 hr)
Protocol: Doping with the environmentally sensitive dyes, Nile red and 9-(2,2-dicyanovinyl)julolidine (DCVJ), enabled detection of assembly formation by fluorescence spectroscopy and confocal microscopy. The relative amount of self-organization of compound 1 was quantified using DCVJ to form a DMEM-normalized dose-organization curve (FIG. 24). Fitting with a sigmoid curve gave an apparent half-maximal assembly concentration (AC50) of 29.7 μM for the molecules of compound 1. […] In confocal microscopy, assemblies of compound 1 stained with Nile red were readily detectable in PBS (pH of 7.4). In the cell culture medium, assemblies of compound 1 stained with Nile red were initially not visible due to the small particle size, but prolonged incubation (>5 hr) led to the formation of larger detectable assemblies (>1 μm in diameter).

caspase 3 = assay: Western blotting of TGF-β2-induced caspase activation in iFECD; assay type: cell-based, human; conditions: TGF-β2 stimulated iFECD
Protocol: In order to collect floating cells and dead cells, the medium was collected on ice, and the solution resulting from washing cells with 1×PBS(−) twice was also collected and centrifuged at 4° C. at 800 g for 12 minutes, followed by discarding the supernatant, thereby obtaining a precipitate. Proteins were extracted from the washed cells by adding a protein extraction buffer (RIPA; 50 mM Tris-HCl (pH of 7.4), 150 mM NaCl, 1 mM EDTA, 0.1% SDS, 0.5% DOC, 1% NP-40) on ice. Thereafter, the precipitate obtained after centrifugation of the floating cells and dead cells was suspended together and extracted. The collected liquid was pulverized in cold water for 30 seconds three times with an ultrasonic device (BIORUPTOR, Tosho Denki) and then centrifuged at 4° C. at 15000 rpm for 10 minutes to collect the protein supernatant.
5 to 8 μg of the extracted proteins were separated by SDS-PAGE and transferred to a nitrocellulose membrane. The primary antibodies used were rabbit anti-Caspase 3 antibody (Cell Signaling, 9662), rabbit anti-PARP antibody (Cell Signaling, 9542), and mouse anti-GAPDH antibody (MBL, M171-3). […] The intensity of the detected bands was analyzed using a LAS-4000mini lumino image analyzer (Fujifilm) and ImageQuant™ software (GE Healthcare).

Solubility = assay type: physicochemical; conditions: in DMSO
C57BL6J mice = assay: Lens-induced myopia in mice, eye drops; assay type: in vivo; conditions: −30 D lens 3 weeks, eye drop once a day
Protocol: (§1) A −30 diopter (unit of refractive index: D) lens was attached to the right eye of 3-week-old male C57BL6J mice, while only a lens frame was attached to the left eye, which served as a control eye. The lenses were worn for three weeks, and the refractive index and axial length of eyes were measured before and after attachment of the lenses. Concurrently with myopia induction, an eye drop, which is a 0.025 solution of X441A in PBS, was administered by instillation once a day every day. PBS was administered by eye drop to the control group (group administered with PBS). After 3 weeks of myopia induction and eye drop administration, the eyeballs were enucleated from the mice, and the sclera was isolated. Then, western blotting was performed to analyze the expression levels of p62, Atg5, and Atg12 in each group.

HEK293 cells = assay: Tunicamycin assay (cell viability under ER stress, WST-8); assay type: cell-based; design: key to Efficacy 5 μM (ER stress inhibition activity) / Efficacy 25 μM (ER stress inhibition activity) / Efficacy 100 μM (ER stress inhibition activity): “−” indicates no activity; “+” indicates weak activity; “++” indicates strong activity; conditions: for EC50: Homo sapiens, HEK293, read-out: EC50 (dose-response curve, Hill equation); for EC50 / Concentration at which activity was shown: tunicamycin 5.0 μg/mL 48 h
Protocol: HEK293 cells were seeded in 96-well plates ([…]) and incubated at 37° C. for 2 hours. The medium was then replaced with 100 μL of DMEM ([…]) containing self-assembling chemicals (20 or more compounds, including compounds of the present disclosure) and 1% DMSO. After incubation with any one of compounds 1 to 6 at a given concentration for 12 to 18 hours, HEK293 cells were treated with tunicamycin (5 μg/mL) or thapsigargin (10 μM) for 48 hours, and cell viability was measured using a WST-8 cell counting kit (Dojindo Laboratories).
Produced compounds XD8 to XD28 were subjected to a tunicamycin assay in the same manner as in Examples 1 to 9. Specifically, HEK293 cells were first seeded in a 96-well plate (1×10^4 cells/well) and incubated at 37° C. for 2 hours. The medium was then replaced with 100 μL of DMEM (10% FBS) containing a self-assembling chemical (each of compounds XD8 to XD28) and […]. After incubation with any of compounds XD8 to XD28 at a concentration of 5.0 μM, 25 μM, or 100 μM for 12 to 18 hours, HEK293 cells were treated with tunicamycin (5 μg/mL) for 48 hours, followed by measuring cell viability by using a WST-8 cell counting kit (Dojindo Laboratories).

[2] = Reversibility of self-assembly on dilution (DCVJ fluorescence); assay type: physicochemical; conditions: dilution of preformed assemblies
Protocol: Compound 1 (100 μM) was incubated in DMEM (10% FBS, 0.5, DMSO) at 25° C. for 1 hour to allow it to form self-assemblies. A solution of pre-formed assemblies of compound 1 was diluted in various ratios with DMEM (10% FBS, 0.5% DMSO). All samples contained 1.0 μM DCVJ, an environmentally sensitive dye, to quantify the amount of self-assembly of compound 1 by fluorescence. If the self-assembly is irreversible (upper graph in the frame), the fluorescence signal is linear with respect to the amount of the compound. […] In the two graphs within the frame, the vertical axis represents fluorescence, and the horizontal axis represents concentration. […] A time-dependent decrease in fluorescence at 25 μM (as a monomer of compound 1) was also observed. Error bars represent s.d. (n=3).

Atg5, and Atg12 = assay: Western blotting of sclera after myopia induction, Atg5/Atg12; assay type: in vivo, mice; conditions: eye drop 3 weeks
Protocol: as §1
After 3 weeks of myopia induction and eye drop administration, the eyeballs were enucleated from the mice, and the sclera was isolated. Then, western blotting was performed to analyze the expression levels of p62, Atg5, and Atg12 in the group administered with X441A and the group administered with PBS.

[3] = tested on: pIRE1/IRE and p-eIF2/eIF2; assay: Endoplasmic reticulum stress pathway activation in myopic sclera; assay type: in vivo, mice; conditions: eye drop 3 weeks
Source text: Thus, the attachment of a minus lens may enhance autophagy, and autophagy was not shown to be complete in the control group. […] This is thought to be the mechanism by which myopia progression is inhibited.

| SMILES | Diameter of detectable assemblies [1] [μm] | Cleaved active caspase 3 (about 17 kDa) (caspase 3) | Solubility (Solubility) | Axial length elongation of eyes (C57BL6J mice) | Myopic shift in refractive index (C57BL6J mice) | Cell viability under ER stress (HEK293 cells; 100 μM pre-incubation 12 h, then thapsigargin 10 μM or tunicamycin 5.0 μg/mL 48 h) | EC50 (HEK293 cells) [µM] | Concentration at which activity was shown (HEK293 cells) [µM] | Reversibility of self-assembly [2] | Increase in expression of At5/Atg12 (Atg5, and Atg12) | Activation of the endoplasmic reticulum stress pathway caused by myopia induction [3] | Efficacy 5 μM (ER stress inhibition activity) (HEK293 cells; compound 5 μM 12 to 18 h, then tunicamycin 5 μg/mL 48 h) | Efficacy 25 μM (ER stress inhibition activity) (HEK293 cells; compound 25 μM 12 to 18 h, then tunicamycin 5 μg/mL 48 h) | Efficacy 100 μM (ER stress inhibition activity) (HEK293 cells; compound 100 μM 12 to 18 h, then tunicamycin 5 μg/mL 48 h) |
| --- | --- | --- | --- | --- | --- | --- | --- | --- | --- | --- | --- | --- | --- | --- |
| NS(=O)(=O)c1ccc(Nc2ccn3c(n2)nc(=O)c2sc4cc(F)ccc4c23)cc1 [compound 1] | > 1 | hardly detected | readily soluble | such changes were not observed | such changes were not observed | enhanced cell viability under ER stress conditions | 38.1 | 100 | disintegration of the particles | enhanced regardless of the administration of X441A | did not occur |  |  |  |
| COc1ccc2c(c1)sc1c(=O)nc3nc(Nc4ccc(S(N)(=O)=O)cc4)ccn3c12 [compound 6] |  | hardly detected |  |  |  |  | 13.7 | 25 |  |  |  | − | ++ | ++ |
